Measured values taken from patent US8729082B2, “Substituted imidazoquinoxalines” (Bayer Intellectual Property GmbH, priority 2009, dated 2014).
pIC50: −log10 of the molar value.

These compounds were tested against T1, human kinase Mps-1 (Homo sapiens, UniProt P33981) (assay: Mps-1 kinase assay (HTRF)). Conditions: lowATP; mean; read-out: Mps1 lowATP mean IC50.
T1 construct: N-terminally GST-tagged human full length recombinant Mps-1 kinase; purchased Invitrogen, Karslruhe, Germany PV4071
T1 sequence (P33981 1-857): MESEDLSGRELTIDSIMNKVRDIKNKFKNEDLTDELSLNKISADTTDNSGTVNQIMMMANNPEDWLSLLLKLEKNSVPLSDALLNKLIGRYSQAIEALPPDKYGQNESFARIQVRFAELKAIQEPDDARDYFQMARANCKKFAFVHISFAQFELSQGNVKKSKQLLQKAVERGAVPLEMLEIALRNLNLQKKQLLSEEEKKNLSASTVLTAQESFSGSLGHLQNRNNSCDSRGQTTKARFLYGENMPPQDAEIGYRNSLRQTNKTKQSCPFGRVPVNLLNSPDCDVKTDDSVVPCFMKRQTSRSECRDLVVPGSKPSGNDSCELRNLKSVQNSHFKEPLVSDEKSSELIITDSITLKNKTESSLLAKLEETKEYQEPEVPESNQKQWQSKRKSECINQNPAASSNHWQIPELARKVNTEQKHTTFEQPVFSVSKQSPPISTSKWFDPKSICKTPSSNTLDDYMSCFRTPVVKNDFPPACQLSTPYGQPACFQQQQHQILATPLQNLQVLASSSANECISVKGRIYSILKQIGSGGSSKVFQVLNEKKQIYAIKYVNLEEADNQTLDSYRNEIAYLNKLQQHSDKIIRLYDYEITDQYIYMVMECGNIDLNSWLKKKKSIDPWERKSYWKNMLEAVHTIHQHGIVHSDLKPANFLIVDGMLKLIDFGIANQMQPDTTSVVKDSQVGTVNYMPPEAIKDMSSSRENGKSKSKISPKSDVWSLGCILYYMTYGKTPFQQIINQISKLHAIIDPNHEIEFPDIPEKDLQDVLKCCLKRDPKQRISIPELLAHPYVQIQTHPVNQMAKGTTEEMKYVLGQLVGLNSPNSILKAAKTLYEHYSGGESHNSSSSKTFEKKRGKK
Type: biochemical
In short: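 HTRF readout: EDTA-stopped reactions incubated 1 h with europium anti-phospho(Ser/Thr) antibody and streptavidin-XLent, emission ratio 665/620 nm after 350 nm excitation. Kinase step: compound pre-bound 15 min to ~1 nM GST-Mps-1, then 60 min at 22 °C with ATP and biotin-peptide substrate; inhibition scaled between no-inhibitor (0%) and no-enzyme (100%) controls.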

Compound	pIC50
O=C(NC1CC1)c1ccc(-c2cnc3c(NCCCN4CCCC4=O)nc4ccc(F)cc4n23)cc1 [Example 2-44, N-cyclopropyl-4-(8-fluoro-4-{[3-(2-oxopyrrolidin-1-yl)propyl]amino}imidazo[1,2-a]quinoxalin-1-yl)benzamide]	6.49
O=C(NC1CC1)c1ccc(-c2cnc3c(NCCCCO)nc4ccc(F)cc4n23)cc1 [Example 2-47, N-cyclopropyl-4-{8-fluoro-4-[(4-hydroxybutyl)amino]imidazo[1,2-a]quinoxalin-1-yl}benzamide]	7.18
O=C(NC1CC1)c1ccc(-c2cnc3c(NCc4cccs4)nc4ccc(F)cc4n23)cc1 [Example 2-48, N-cyclopropyl-4-{8-fluoro-4-[(thiophen-2-ylmethyl)amino]imidazo[1,2-a]quinoxalin-1-yl}benzamide]	7.39
O=C(NC1CC1)c1ccc(-c2cnc3c(NCC4CC4)nc4ccc(F)cc4n23)cc1 [Example 2-52, N-cyclopropyl-4-{4-[(cyclopropylmethyl)amino]-8-fluoroimidazo[1,2-a]quinoxalin-1-yl}benzamide]	7.32
O=C(NC1CC1)c1ccc(-c2cnc3c(NCc4ccccn4)nc4ccc(F)cc4n23)cc1 [Example 2-53, N-cyclopropyl-4-{8-fluoro-4-[(pyridin-2-ylmethyl)amino]imidazo[1,2-a]quinoxalin-1-yl}benzamide]	5.98
O=C(NC1CC1)c1ccc(-c2cnc3c(NCc4cccnc4)nc4ccc(F)cc4n23)cc1 [Example 2-54, N-cyclopropyl-4-{8-fluoro-4-[(pyridin-3-ylmethyl)amino]imidazo[1,2-a]quinoxalin-1-yl}benzamide]	7.01
NC(=O)CCNc1nc2ccc(F)cc2n2c(-c3ccc(C(=O)NC4CC4)cc3)cnc12 [Example 2-56, 4-{4-[(3-amino-3-oxopropyl)amino]-8-fluoroimidazo[1,2-a]quinoxalin-1-yl}-N-cyclopropylbenzamide]	6.42
CNC(=O)Nc1ccc(-c2cnc3c(NCCOC)nc4ccc(F)cc4n23)cc1 [Example 2-61, 1-(4-{8-fluoro-4-[(2-methoxyethyl)amino]imidazo[1,2-a]quinoxalin-1-yl}phenyl)-3-methylurea]	5.14
CNC(=O)Nc1ccc(-c2cnc3c(NCCCCO)nc4ccc(F)cc4n23)cc1 [Example 2-63, 1-(4-{8-fluoro-4-[(4-hydroxybutyl)amino]imidazo[1,2-a]quinoxalin-1-yl}phenyl)-3-methylurea]	5.79
CNC(=O)Nc1ccc(-c2cnc3c(NCC(F)(F)F)nc4ccc(F)cc4n23)cc1 [Example 2-64, 1-(4-{8-fluoro-4-[(2,2,2-trifluoroethyl)amino]imidazo[1,2-a]quinoxalin-1-yl}phenyl)-3-methylurea]	5.17
CNC(=O)Nc1ccc(-c2cnc3c(NCCCO)nc4ccc(F)cc4n23)cc1 [Example 2-65, 1-(4-{8-fluoro-4-[(3-hydroxypropyl)amino]imidazo[1,2-a]quinoxalin-1-yl}phenyl)-3-methylurea]	5.27
CNC(=O)Nc1ccc(-c2cnc3c(NCCNC(C)=O)nc4ccc(F)cc4n23)cc1 [Example 2-66, N-{2-[(8-fluoro-1-{4-[(methylcarbamoyl)amino]phenyl}imidazo[1,2-a]quinoxalin-4-yl)amino]ethyl}acetamide]	4.93
CNC(=O)Nc1ccc(-c2cnc3c(NCCCn4ccnc4)nc4ccc(F)cc4n23)cc1 [Example 2-67, 1-[4-(8-fluoro-4-{[3-(1H-imidazol-1-yl)propyl]amino}imidazo[1,2-a]quinoxalin-1-yl)phenyl]-3-methylurea]	5.50
CNC(=O)Nc1ccc(-c2cnc3c(NCc4cccnc4)nc4ccc(F)cc4n23)cc1 [Example 2-68, 1-(4-{8-fluoro-4-[(pyridin-3-ylmethyl)amino]imidazo[1,2-a]quinoxalin-1-yl}phenyl)-3-methylurea]	5.53
CNC(=O)Nc1ccc(-c2cnc3c(NCc4ccco4)nc4ccc(F)cc4n23)cc1 [Example 2-70, 1-(4-{8-fluoro-4-[(furan-2-ylmethyl)amino]imidazo[1,2-a]quinoxalin-1-yl}phenyl)-3-methylurea]	5.29

Further compounds by rising pIC50, results first:

pIC50	Compound
4.76	CNC(=O)Nc1ccc(-c2cnc3c(NCc4ccccc4F)nc4ccc(F)cc4n23)cc1 [Example 2-62, 1-(4-{8-fluoro-4-[(2-fluorobenzyl)amino]imidazo[1,2-a]quinoxalin-1-yl}phenyl)-3-methylurea]
4.89	CNC(=O)Nc1ccc(-c2cnc3c(NCCCN4CCCC4=O)nc4ccc(F)cc4n23)cc1 [Example 2-60, 1-[4-(8-fluoro-4-{[3-(2-oxopyrrolidin-1-yl)propyl]amino}imidazo[1,2-a]quinoxalin-1-yl)phenyl]-3-methylurea]
5.43	CNC(=O)Nc1ccc(-c2cnc3c(NCc4ccncc4)nc4ccc(F)cc4n23)cc1 [Example 2-69, 1-(4-{8-fluoro-4-[(pyridin-4-ylmethyl)amino]imidazo[1,2-a]quinoxalin-1-yl}phenyl)-3-methylurea]
6.32	O=C(NC1CC1)c1ccc(-c2cnc3c(NCC(O)CO)nc4ccc(F)cc4n23)cc1 (stereo not drawn) [Example 2-59, N-cyclopropyl-4-{4-[(2,3-dihydroxypropyl)amino]-8-fluoroimidazo[1,2-a]quinoxalin-1-yl}benzamide]
6.59	COCCNc1nc2ccc(F)cc2n2c(-c3ccc(C(=O)NC4CC4)cc3)cnc12 [Example 2-45, N-cyclopropyl-4-{8-fluoro-4-[(2-methoxyethyl)amino]imidazo[1,2-a]quinoxalin-1-yl}benzamide]
6.75	COCCCNc1nc2ccc(F)cc2n2c(-c3ccc(C(=O)NC4CC4)cc3)cnc12 [Example 2-57, N-cyclopropyl-4-{8-fluoro-4-[(3-methoxypropyl)amino]imidazo[1,2-a]quinoxalin-1-yl}benzamide]
6.81	O=C(NC1CC1)c1ccc(-c2cnc3c(NCCCO)nc4ccc(F)cc4n23)cc1 [Example 2-50, N-cyclopropyl-4-{8-fluoro-4-[(3-hydroxypropyl)amino]imidazo[1,2-a]quinoxalin-1-yl}benzamide]
6.98	Cn1cc(CNc2nc3ccc(F)cc3n3c(-c4ccc(C(=O)NC5CC5)cc4)cnc23)cn1 [Example 2-58, N-cyclopropyl-4-(8-fluoro-4-{[(1-methyl-1H-pyrazol-4-yl)methyl]amino}imidazo[1,2-a]quinoxalin-1-yl)benzamide]
7.06	CCNc1nc2ccc(F)cc2n2c(-c3ccc(C(=O)NC4CC4)cc3)cnc12 [Example 2-49, N-cyclopropyl-4-[4-(ethylamino)-8-fluoroimidazo[1,2-a]quinoxalin-1-yl]benzamide]
7.11	O=C(NC1CC1)c1ccc(-c2cnc3c(NCc4ccc(F)cc4)nc4ccc(F)cc4n23)cc1 [Example 2-46, N-cyclopropyl-4-{8-fluoro-4-[(4-fluorobenzyl)amino]imidazo[1,2-a]quinoxalin-1-yl}benzamide]
7.41	CCCCNc1nc2ccc(F)cc2n2c(-c3ccc(C(=O)NC4CC4)cc3)cnc12 [Example 2-51, 4-[4-(butylamino)-8-fluoroimidazo[1,2-a]quinoxalin-1-yl]-N-cyclopropylbenzamide]
7.55	CC(C)CNc1nc2ccc(F)cc2n2c(-c3ccc(C(=O)NC4CC4)cc3)cnc12 [Example 2-55, N-cyclopropyl-4-{8-fluoro-4-[(2-methylpropyl)amino]imidazo[1,2-a]quinoxalin-1-yl}benzamide]
